Patent US20150010475A1, “CRLF-2 BINDING PEPTIDES, PROTOCELLS AND VIRAL-LIKE PARTICLES USEFUL IN THE TREATMENT OF CANCER, INCLUDING ACUTE LYMPHOBLASTIC LEUKEMIA (ALL)” (STC. UNM, priority 2011, published 2015)
Converted amounts (≈) assume the structure as drawn.

Columns and labels:
[1] = molecular target: human CRLF2 expressed on the cell surface (BaF3-CRLF2, REH-CRLF2, MHH CALL 4, MUTZ5 cells) (human) (UniProt Q9HC73); experiment: protocell binding to BaF3-CRLF2, MUTZ5 and MHHCALL4 cells, against untargeted protocells, the parental BAF3 line or CRLF2(-) NALM6 cells (FIG. 19, 20)
[2] = molecular target: T1, CRLF2 (Homo sapiens, UniProt Q9HC73); experiment: Flow cytometry binding of M13 phage displaying peptide to BaF3-CRLF2 cells; settings: for binding to CRLF2 (peptides pulled from enriched phage population): phage display selection on BaF3 cells expressing CRLF2
T1 construct: expressed in transfected cells
T1 sequence (Q9HC73 23-371): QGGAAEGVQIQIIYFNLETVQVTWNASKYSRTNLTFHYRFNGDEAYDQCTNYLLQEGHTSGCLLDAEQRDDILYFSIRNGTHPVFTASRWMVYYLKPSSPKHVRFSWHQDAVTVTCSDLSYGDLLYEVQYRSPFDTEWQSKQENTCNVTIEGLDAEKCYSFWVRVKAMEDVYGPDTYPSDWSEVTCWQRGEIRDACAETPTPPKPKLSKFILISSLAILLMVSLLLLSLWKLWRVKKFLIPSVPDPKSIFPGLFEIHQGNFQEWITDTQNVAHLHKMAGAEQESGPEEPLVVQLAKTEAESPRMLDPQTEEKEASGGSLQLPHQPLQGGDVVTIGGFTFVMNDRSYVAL
Procedure: (§1) Flow cytometry is used to evaluate binding of individual phage clones within consensus sequences. In this case, a saturable binding curve can be constructed, allowing for the determination of the dissociation constant (Kd) of phage displaying potentially specific peptides that bind cells with high levels of CRLF2 expression but not parental cell lines with minimal expression.
The selections were carried out on BaF3 cells that had been induced to create the cell receptor CRLF2 and express it on their surface. Negative selections were carried out on the parental cell line (no CRLF2) in order to assure that the ligand identified was in fact binding to the desired target and not to other features on the surface of the cells.
(§2) Affinity selections on cellular targets are complicated by the heterogeneity of surface protein expression on mammalian cells, which frequently results in a large number of peptides that bind unsuitable targets. A major goal of the work we propose is to create an efficient selection/counter-selection scheme. To illustrate our strategy, the gene encoding human CRLF2 was introduced into BaF3 cells (a murine IL3-dependent pro-B cell line) and the protein's abundant surface expression was confirmed by FACS (as shown in Project 2). The resulting BaF3-CRLF2 cells, together with the BaF3 parental line (which specifically lacks CRLF2), served as a matched selection/counter-selection pair and provided a convenient means of discarding affinity selectants that bind the many non-CRLF2 receptors inevitably encountered on the BaF3 surface.
(§3) In this case, a saturable binding curve can be constructed, allowing for the determination of the disassociation constant (Kd) of phage displaying potential specific peptides that bind cells with high levels of CRLF2 expression but not parental cell lines with minimal expression. Data shown for the MTAAPVH phage clone on BaF3/CRLF2 (A) and parental BaF3 cells. (B) Binding curves were constructed by titrating the amount of phage with constant cell concentrations in order to quantitatively describe binding. Non-specific binding was determined by incubating wild-type phage with the same cell lines.
CRLF2 may be targeted using its natural ligand TSLP or with peptides that are specifically directed towards CRLF2; both approaches are being developed. […] Peptides selected by affinity for Ba-F3-CRLF2 cells were counter-selected against parental Ba-F3 cells to eliminate any phage binding receptors common to both cell types. We find that a matched selection/counter-selection pair greatly increases the specificity of the affinity selection process. It is important to note that in the VLP screening method, each VLP encapsidates its own mRNA. This means that the nucleotide sequences encoding any particular VLP and its guest peptide or protein are contained within the particle itself and can be recovered by reverse transcription and polymerase chain reaction.

[3] = tested on: BaF3 parental cells; experiment: Flow cytometry binding of M13 phage displaying peptide to BaF3 parental cells; design: species or system murine
Source text: as §1, §2, §3
CRLF2 may be targeted using its natural ligand TSLP or with peptides that are specifically directed towards CRLF2; both approaches are being developed. […]

[4] = tested on: MHH CALL 4, Mutz-5 and BaF3/CRLF-2 cells; experiment: Internalization of CRLF-2-targeted protocells by target cells; assay type: cell-based, human; settings: peptide on protocell surface
Procedure: The upper-left portion of FIG. 7 depicts the internalization efficacy of CRLF-2-targeted protocells in the absence of the R8 peptide. The upper right portion of FIG. 7 presents images of CRLF-2-positive (MHH CALL 4) and CRLF-2-negative (MOLT 4) cells exposed to targeted protocells for 37° C. for two hours. N.D.=not detectable; bilayer composition=DOIDA in DSPC with 5 wt % DSPE; approximate peptide density=10 targeting peptides/protocell and ˜500 H5WYG peptides/protocell. Targeted protocells can become internalized within target cells (MHH CALL 4, Mutz-5 and BaF3/CRLF-2) over time. However, overall internalization efficiency is only ˜20%, which could lead to non-specific cytotoxicity. The lower-left portion of FIG. 7 depicts the internalization efficacy of CRLF-2-targeted protocells in the presence of the R8 peptide. The lower right portion of FIG. 7 presents images of CRLF-2-positive (MHH CALL 4) and CRLF-2-negative (MOLT 4) cells exposed to targeted protocells for 37° C. for two hours. N.D.=not detectable; bilayer composition=DOIDA in DSPC with 5 wt % DSPE; approximate peptide density=10 targeting peptides/protocell and −500 H5WYG peptides/protocell.
The upper-left portion of FIG. 8 depicts internalization kinetics for CRLF-2-targeted protocells in the absence and presence of the R8 peptide. […]

[5] = tested on: Hep3B; experiment: Cytotoxicity of DOX, free or delivered in protocells or liposomes, in Hep3B; assay type: cell-based; settings: as DOX
Source text: For toxicology studies there are two major issues which must be addressed: silica loading in the tissues, derived from the mesoporous silica core of the protocell, and non-targeted or “off target” delivery of the therapeutic cargos to normal tissues. […] Nevertheless, we will systematically evaluate all major organs and tissues in treated mice for silica deposition and cellular damage after treatment with loaded and unloaded protocells. […] As a benchmark, we compared oxidative stress and cell viability of neutral, positively and negatively-charged targeted protocells with corresponding liposomes and other control particles at 10^9 particles/mL corresponding to ˜1-2 μg/mL (FIG. 24). […] In preliminary studies (FIG. 25), we also compared the IgG response of C57Bl/6 mice immunized twice with 10 μg doses of targeted and SP94-targeted protocells to that of virus-like particles (VLPs) conjugated to the same concentration of targeting peptide (MS2 SP94). […] When considering therapeutically administered doses, for the hepatocellular carcinoma cell line Hep3B, the LC50 and LC90 values of free DOX are 150 and 500 ng/mL, respectively. […] As discussed above, Si loading will be assessed by ICP-MS. […]

[6] = molecular target: T2, human CRLF2 expressed on the cell surface (BaF3-CRLF2, REH-CRLF2, MHH CALL 4, MUTZ5 cells) (human), Q9HC73; experiment: binding of M13 phage to BaF3-CRLF2 cells (FIG. 18)
T2 chain: T1 sequence (Q9HC73 23-371)

[7] = molecular target: T2, human CRLF2 expressed on the cell …; experiment: flow cytometry, M13 phage on BaF3-CRLF2 cells (FIG. 3)
[8] = molecular target: T3, human CRLF2 expressed on the cell surface (BaF3-CRLF2, REH-CRLF2, MHH CALL 4, MUTZ5 cells) (human, UniProt Q9HC73 23-371); experiment: flow cytometry, Alexa-fluor-647 labeled particles incubated 1 h with BaF3/CRLF-2 cells
T3 construct: whole, on cells; Parental BaF3 / REH cells lack CRLF2 and served as negative controls; also called TSLP receptor; TSLPR
T3 sequence (looked up): T1 sequence (Q9HC73 23-371)

CRLF2-targeted protocells conjugated with the CRLF2-targeting peptide TDAHASV
fold higher affinity [1]: 1000 fold

MTAAPVH
Specific binding of phage clone to CRLF2 positive cells ([2]; BaF3/CRLF2, non-specific binding from wild-type phage): significant | binding to CRLF2 (peptides pulled from enriched phage population) [2]: best binder | Specific binding of phage clone to the parental cells ([3]; parental BaF3): extremely minimal | promotion of internalization of protocells by CRLF2-positive cells [4]: does not promote rapid internalization

COc1cccc2c1C(=O)c1c(O)c3c(c(O)c1C2=O)C[C@@](O)(C(=O)CO)C[C@@H]3O[C@H]1C[C@H](N)[C@H](O)[C@H](C)O1 [free DOX, doxorubicin]
LC50 [5]: 0.15 µg/mL (≈ 0.276 µM) | LC90 [5]: 0.5 µg/mL (≈ 0.92 µM)

RRRRRRRR [R8, 8 mer polyarginine that promotes internalization, reference compound]
promotion of internalization of protocells by CRLF2-positive cells [4]: promoted this selective internalization in a density-dependent manner

TDAHASV [peptide ligand to CRLF2]
Kd ([2]; peptide displayed on M13 phage, BaF3-CRLF2 cells): 27.9 nM | binding to CRLF2 (peptides pulled from enriched phage population) [2]: exhibited binding to CRLF2 | binding to the BaF3 parent ([3]; peptide displayed on M13 phage): not showing significant binding | Kd ([3]; peptide displayed on M13 phage, read-out: Kd for the BaF3 parental line): < 3000 nM

FSYLPSH
binding to CRLF2 (peptides pulled from enriched phage population) [2]: exhibited binding to CRLF2

TDAHASV (modifications not checked) [M13 filamentous phage displaying the CRLF2-binding peptide TDAHASV]
Kd [6]: 27.9 nM | Kd [7]: 3 nM

B1: VLPs not displaying any additional peptides (other)
chain: ASNFTQFVLVDNGGTGDVTVAPSNFANGVAEWISSNSRSQAYKVTCSVRQSSAQNRKYTIKVEVPKVATQTVGGVELPVAAWRSYLNMELTIPIFATNSDCELIVKAMQGLLKDGNPIPSAIAANSGIY
notes: Control particle; also called nontargeted VLPs; particles not displaying any additional peptides
binding result [8]: no binding
